Laboratory results: ChEMBL document CHEMBL4041549, “Tetrahydroisoquinoline-7-carboxamide Derivatives as New Selective Discoidin Domain Receptor 1 (DDR1) Inhibitors” (ACS Med Chem Lett, 2017)
The source made the active and inactive calls. No cut-off for these calls is given here.

How the values were obtained:
[1] = target: Mast/stem cell growth factor receptor Kit (Homo sapiens, UniProt P10721); experiment: Inhibition of recombinant human His-tagged c-kit cytoplasmic domain (544 to 976 residues) expressed in baculovirus expression system using […] as substrate measured after 1 hr by FRET-based Z'-Lyte assay
Bcr/Abl fusion protein = Bcr/Abl fusion protein (Homo sapiens, UniProt P00519); experiment: Inhibition of recombinant human full length His-tagged Bcr-Abl fusion protein cytoplasmic domain expressed in baculovirus expression system using tyrosine-2 as substrate measured after 1 hr by FRET-based Z'-Lyte assay
[2] = target: T1, Discoidin domain-containing receptor 2 (Homo sapiens, UniProt Q16832); experiment: Inhibition of recombinant human GST-tagged DDR2 cytoplasmic domain expressed in baculovirus expression system using Fluorescein-Poly GAT as substrate measured after 1 hr by TR-FRET assay
T1 sequence (Q16832 whole entry): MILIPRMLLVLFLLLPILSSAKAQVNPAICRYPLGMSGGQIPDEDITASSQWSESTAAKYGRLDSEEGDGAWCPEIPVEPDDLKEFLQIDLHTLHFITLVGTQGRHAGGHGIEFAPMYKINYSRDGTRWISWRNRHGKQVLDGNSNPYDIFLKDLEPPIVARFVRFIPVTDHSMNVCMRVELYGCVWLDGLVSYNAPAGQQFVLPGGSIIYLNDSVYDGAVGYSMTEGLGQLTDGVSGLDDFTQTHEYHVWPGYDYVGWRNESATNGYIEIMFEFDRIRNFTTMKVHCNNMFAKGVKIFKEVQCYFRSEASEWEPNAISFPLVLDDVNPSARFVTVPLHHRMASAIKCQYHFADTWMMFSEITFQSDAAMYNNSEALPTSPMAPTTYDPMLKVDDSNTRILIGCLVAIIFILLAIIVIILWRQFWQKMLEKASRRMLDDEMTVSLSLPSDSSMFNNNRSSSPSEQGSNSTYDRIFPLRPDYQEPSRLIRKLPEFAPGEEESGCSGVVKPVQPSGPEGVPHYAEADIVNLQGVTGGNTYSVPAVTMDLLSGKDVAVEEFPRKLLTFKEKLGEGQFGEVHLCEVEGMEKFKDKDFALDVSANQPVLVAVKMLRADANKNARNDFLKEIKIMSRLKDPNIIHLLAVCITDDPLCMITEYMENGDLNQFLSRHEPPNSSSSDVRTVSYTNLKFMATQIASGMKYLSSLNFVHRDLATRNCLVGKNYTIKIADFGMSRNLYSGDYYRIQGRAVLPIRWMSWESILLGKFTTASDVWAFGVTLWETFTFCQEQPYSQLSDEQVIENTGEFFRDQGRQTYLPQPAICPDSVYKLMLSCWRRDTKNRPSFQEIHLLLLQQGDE

[3] = target: T2, Epithelial discoidin domain-containing receptor 1 (Homo sapiens, UniProt Q08345); experiment: Inhibition of recombinant human GST-tagged DDR1 catalytic domain expressed in baculovirus expression system using Fluorescein-Poly GAT as substrate measured after 1 hr by TR-FRET assay
Mus musculus [4] = experiment: Anti-inflammatory activity in po dosed LPS-induced C57BL/6 mouse acute lung injury model assessed as reduction in total number of cells in bronchoalveolar lavage fluid pretreated for 7 days followed by LPS challenge measured after 6 hrs by cell counter; format: functional, organism-based
[5] = target: NT-3 growth factor receptor (Homo sapiens) (UniProt Q16288); experiment: Binding affinity to human DNA-tagged TrkC measured after 1 hr by quantitative PCR analysis
Mus musculus [6] = experiment: Anti-inflammatory activity in LPS-induced C57BL/6 mouse acute lung injury model assessed as reduction in pathological changes at 20 to 40 mg/kg, po bid pretreated for 7 days followed LPS challenge measured after 6 hrs hematoxylin and eosin staining based microscopy; format: functional, organism-based
Peritoneal macrophage [7] = experiment: Anti-inflammatory activity in C57BL/6 mouse primary peritoneal macrophages assessed as inhibition of LPS-induced TNF-alpha production by ELISA method; format: functional, cell-based
Mus musculus [8] = experiment: Anti-inflammatory activity in LPS-induced C57BL/6 mouse acute lung injury model assessed as reduction in lung wet/dry ratio at 20 to 40 mg/kg, po bid pretreated for 7 days followed by LPS challenge measured after 6 hrs; format: functional, organism-based
[9] = target: T2, Epithelial discoidin domain-containing receptor 1; experiment: Binding affinity to human DNA-tagged DDR1 expressed in bacterial expression system measured after 1 hr by quantitative PCR analysis
[10] = target: T2, Epithelial discoidin domain-containing receptor 1; conditions: 1 uM
[11] = target: BDNF/NT-3 growth factors receptor (Homo sapiens) (UniProt Q16620); experiment: Binding affinity to human DNA-tagged TrkB measured after 1 hr by quantitative PCR analysis
Peritoneal macrophage [12] = experiment: Anti-inflammatory activity in C57BL/6 mouse primary peritoneal macrophages assessed as inhibition of LPS-induced IL-6 production by ELISA method; format: functional, cell-based
Mus musculus [13] = experiment: Anti-inflammatory activity in po dosed LPS-induced C57BL/6 mouse acute lung injury model assessed as reduction in total protein concentration in bronchoalveolar lavage fluid pretreated for 7 days followed by LPS challenge measured after 6 hrs; format: functional, organism-based

T2 sequence (Q08345 whole entry, the tested form may be a part): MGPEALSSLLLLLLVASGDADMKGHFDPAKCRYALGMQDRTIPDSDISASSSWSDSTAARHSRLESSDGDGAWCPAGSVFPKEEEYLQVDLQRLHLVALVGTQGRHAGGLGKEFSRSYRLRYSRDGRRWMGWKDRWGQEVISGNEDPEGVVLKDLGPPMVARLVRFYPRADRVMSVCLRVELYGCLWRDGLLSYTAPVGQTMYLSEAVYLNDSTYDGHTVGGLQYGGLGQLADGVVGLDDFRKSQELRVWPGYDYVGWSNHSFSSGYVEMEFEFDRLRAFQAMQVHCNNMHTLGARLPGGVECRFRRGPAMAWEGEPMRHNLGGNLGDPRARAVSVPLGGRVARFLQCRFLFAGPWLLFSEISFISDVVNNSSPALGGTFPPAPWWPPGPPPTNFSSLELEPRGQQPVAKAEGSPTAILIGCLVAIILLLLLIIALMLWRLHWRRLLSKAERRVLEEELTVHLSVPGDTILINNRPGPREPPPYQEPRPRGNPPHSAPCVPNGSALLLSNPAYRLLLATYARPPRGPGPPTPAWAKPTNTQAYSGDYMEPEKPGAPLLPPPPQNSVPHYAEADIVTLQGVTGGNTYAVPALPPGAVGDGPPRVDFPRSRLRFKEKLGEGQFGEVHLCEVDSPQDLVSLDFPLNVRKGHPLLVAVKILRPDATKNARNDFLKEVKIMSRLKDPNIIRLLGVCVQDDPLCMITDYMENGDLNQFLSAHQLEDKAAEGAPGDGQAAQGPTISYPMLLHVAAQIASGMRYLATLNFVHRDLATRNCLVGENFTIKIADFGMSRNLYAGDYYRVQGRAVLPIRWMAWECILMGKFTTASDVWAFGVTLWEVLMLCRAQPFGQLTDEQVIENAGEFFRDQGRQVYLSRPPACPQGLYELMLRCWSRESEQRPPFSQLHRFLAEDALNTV
Sequence of Mast/stem cell growth factor receptor Kit (P10721 whole entry, the tested form may be a part): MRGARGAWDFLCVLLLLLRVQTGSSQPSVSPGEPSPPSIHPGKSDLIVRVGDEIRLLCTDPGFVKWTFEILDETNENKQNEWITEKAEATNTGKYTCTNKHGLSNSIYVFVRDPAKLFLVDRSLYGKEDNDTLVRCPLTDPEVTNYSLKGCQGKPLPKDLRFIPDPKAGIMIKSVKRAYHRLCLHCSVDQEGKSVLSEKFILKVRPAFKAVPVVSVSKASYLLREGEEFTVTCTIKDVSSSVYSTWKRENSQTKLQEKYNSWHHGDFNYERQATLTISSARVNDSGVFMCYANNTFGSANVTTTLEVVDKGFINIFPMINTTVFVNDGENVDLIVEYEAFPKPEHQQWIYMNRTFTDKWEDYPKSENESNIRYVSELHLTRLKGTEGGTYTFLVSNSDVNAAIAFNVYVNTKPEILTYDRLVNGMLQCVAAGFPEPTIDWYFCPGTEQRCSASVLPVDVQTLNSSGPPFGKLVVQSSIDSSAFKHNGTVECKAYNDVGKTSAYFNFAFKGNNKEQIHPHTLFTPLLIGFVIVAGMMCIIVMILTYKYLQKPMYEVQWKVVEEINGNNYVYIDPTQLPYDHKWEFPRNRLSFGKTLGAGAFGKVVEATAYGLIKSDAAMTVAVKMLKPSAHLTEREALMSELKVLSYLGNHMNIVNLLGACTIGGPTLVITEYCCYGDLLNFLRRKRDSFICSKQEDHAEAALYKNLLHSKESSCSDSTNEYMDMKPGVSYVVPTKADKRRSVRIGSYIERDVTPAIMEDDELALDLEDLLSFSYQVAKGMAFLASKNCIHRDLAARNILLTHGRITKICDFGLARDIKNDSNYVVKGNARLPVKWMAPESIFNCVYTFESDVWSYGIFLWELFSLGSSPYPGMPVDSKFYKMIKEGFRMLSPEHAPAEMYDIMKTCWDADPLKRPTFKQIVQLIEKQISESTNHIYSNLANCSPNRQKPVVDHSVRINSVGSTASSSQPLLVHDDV
Sequence of Bcr/Abl fusion protein (P00519 whole entry, the tested form may be a part): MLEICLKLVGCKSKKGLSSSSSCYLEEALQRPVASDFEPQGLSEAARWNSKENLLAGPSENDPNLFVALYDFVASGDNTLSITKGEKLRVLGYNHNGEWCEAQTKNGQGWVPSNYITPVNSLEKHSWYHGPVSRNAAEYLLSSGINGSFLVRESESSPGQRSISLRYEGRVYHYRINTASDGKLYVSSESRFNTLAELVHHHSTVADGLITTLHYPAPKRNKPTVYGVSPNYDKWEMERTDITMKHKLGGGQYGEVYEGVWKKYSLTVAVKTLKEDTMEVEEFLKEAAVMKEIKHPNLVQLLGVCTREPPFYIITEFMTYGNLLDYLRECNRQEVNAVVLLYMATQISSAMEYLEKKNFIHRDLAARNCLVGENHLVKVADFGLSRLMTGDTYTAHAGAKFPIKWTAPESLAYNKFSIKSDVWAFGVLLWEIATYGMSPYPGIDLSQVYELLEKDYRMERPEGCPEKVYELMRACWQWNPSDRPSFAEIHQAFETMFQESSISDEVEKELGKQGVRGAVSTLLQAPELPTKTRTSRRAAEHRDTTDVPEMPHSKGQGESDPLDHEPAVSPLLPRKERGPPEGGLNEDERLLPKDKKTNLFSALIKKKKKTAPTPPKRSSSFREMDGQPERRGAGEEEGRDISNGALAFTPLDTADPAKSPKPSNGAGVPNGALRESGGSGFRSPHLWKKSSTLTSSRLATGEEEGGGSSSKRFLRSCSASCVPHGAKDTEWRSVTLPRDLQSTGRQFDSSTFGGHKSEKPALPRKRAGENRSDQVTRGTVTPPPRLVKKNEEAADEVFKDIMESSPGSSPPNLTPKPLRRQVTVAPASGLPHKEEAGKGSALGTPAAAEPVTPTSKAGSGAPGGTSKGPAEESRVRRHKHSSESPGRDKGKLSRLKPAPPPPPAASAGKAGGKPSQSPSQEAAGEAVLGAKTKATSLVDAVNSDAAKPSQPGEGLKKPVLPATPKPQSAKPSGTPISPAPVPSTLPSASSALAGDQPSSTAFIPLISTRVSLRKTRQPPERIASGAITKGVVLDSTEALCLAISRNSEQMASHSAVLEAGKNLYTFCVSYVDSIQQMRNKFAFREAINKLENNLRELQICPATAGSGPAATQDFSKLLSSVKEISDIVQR
Sequence of Bcr/Abl fusion protein (P11274 whole entry, further chain, the tested form may be a part): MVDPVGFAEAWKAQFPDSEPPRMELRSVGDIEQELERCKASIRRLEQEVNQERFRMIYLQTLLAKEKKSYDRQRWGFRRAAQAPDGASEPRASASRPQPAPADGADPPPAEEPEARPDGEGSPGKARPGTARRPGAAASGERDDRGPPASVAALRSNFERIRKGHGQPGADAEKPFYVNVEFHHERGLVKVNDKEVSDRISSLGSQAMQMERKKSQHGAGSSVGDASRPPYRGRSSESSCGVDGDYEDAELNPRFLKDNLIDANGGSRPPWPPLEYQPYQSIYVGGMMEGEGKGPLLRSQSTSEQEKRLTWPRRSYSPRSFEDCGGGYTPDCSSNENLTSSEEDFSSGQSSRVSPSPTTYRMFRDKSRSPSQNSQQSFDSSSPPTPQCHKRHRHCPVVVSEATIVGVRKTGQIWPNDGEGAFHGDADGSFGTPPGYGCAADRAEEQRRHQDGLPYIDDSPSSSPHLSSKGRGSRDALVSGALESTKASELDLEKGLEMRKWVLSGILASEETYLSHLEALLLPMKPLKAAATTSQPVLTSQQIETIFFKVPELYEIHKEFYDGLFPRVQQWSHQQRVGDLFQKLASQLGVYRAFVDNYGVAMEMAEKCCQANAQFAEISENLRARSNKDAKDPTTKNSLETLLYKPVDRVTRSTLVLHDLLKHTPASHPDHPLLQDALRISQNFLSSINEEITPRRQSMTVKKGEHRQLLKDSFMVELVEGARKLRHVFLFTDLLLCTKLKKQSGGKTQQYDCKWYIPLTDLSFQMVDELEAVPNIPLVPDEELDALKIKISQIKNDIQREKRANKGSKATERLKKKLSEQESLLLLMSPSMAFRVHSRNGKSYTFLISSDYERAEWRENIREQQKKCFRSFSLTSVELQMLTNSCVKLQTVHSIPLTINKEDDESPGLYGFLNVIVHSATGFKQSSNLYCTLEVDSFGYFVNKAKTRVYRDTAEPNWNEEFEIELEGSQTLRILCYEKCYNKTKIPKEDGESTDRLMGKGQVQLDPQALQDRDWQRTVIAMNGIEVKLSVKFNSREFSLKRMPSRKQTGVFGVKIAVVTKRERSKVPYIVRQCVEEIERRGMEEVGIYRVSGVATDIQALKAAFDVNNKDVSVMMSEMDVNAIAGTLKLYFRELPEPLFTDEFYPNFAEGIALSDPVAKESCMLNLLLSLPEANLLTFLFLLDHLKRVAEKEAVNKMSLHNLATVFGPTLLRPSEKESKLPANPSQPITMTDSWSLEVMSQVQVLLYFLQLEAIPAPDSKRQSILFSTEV
Sequence of NT-3 growth factor receptor (Homo sapiens) (Q16288 32-839 limits assumed): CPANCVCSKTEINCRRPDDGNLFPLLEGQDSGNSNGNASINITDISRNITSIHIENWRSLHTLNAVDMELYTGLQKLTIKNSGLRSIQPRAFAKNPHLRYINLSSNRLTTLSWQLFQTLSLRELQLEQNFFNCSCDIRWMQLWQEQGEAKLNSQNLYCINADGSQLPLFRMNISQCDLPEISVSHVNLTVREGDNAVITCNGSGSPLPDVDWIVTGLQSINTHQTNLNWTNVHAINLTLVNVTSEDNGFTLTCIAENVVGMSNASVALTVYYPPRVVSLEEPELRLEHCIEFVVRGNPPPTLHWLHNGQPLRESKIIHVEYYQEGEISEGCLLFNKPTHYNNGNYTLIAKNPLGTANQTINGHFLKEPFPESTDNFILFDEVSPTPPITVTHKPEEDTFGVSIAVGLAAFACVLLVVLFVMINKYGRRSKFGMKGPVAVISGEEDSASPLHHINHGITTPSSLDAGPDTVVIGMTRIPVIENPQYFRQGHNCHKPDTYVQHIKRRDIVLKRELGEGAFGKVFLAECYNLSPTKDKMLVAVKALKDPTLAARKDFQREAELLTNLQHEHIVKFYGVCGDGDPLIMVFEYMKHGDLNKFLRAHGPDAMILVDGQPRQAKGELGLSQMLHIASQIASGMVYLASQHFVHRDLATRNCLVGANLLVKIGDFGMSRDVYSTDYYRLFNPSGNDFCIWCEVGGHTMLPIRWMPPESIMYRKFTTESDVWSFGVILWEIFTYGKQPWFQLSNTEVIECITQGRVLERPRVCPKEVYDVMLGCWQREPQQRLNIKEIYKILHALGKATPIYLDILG

Row | Compound | IC50 [1] [µM] | IC50 (Bcr/Abl fusion protein) [µM] | IC50 [2] [µM] | IC50 [3] [µM] | further results
1 | CC1CN(c2cncnc2)Cc2cc(C(=O)Nc3ccc(CN4CCN(C)CC4)c(C(F)(F)F)c3)ccc21 (racemic) | > 10 | 0.547 | 0.354 |  | 
2 | CCc1ccc(C(=O)Nc2cc(CN3CCN(C)CC3)cc(C(F)(F)F)c2)cc1C#Cc1ccc2ccnn2c1 | 2.5 | 0.414 | 0.203 | 0.0131 | 
3 | CC1CN(c2cncnc2)Cc2cc(C(=O)Nc3cc(CN4CCN(C)CC4)cc(C4CCCCC4)c3)ccc21 (racemic) | > 10 | > 10 |  | 0.123 | 
4 | CC1CN(c2cncnc2)Cc2cc(C(=O)Nc3cc(C(F)(F)F)ccc3CN3CCN(C)CC3)ccc21 (stereo unspecified) | > 10 | > 10 | > 10 | 10 | 
5 | CC1CN(c2cncnc2)Cc2cc(C(=O)Nc3cccc(C(F)(F)F)c3)ccc21 (racemic) | > 10 | > 10 |  |  | 
6 | CC1CN(c2cncnc2)Cc2cc(C(=O)Nc3cc(CN4CCN(C5CCCCC5)CC4)cc(C(F)(F)F)c3)ccc21 (racemic) | > 10 | > 10 | 0.846 |  | 
7 | CC1Cc2ccc(C(=O)Nc3cc(CN4CCN(C)CC4)cc(C(F)(F)F)c3)cc2CN1c1cncnc1 (racemic) | > 10 | > 10 |  |  | 
8 | CN1CCN(Cc2cc(NC(=O)c3ccc4c(c3)CN(c3ccncn3)CC4)cc(C(F)(F)F)c2)CC1 | > 10 | > 10 | > 10 | > 10 | 
9 | CN1CCN(Cc2cc(NC(=O)c3ccc4c(c3)CN(Cc3cncnc3)CC4)cc(C(F)(F)F)c2)CC1 | > 10 | > 10 | > 10 | > 10 | 
10 | C[C@@H]1CN(c2cncnc2)Cc2cc(C(=O)Nc3cc(CN4CCCN(C)CC4)cc(C(F)(F)F)c3)ccc21 | > 10 | > 10 | 2.6 | 0.167 | 
11 | CC1CN(c2cncnc2)Cc2cc(C(=O)Nc3cc(N4CCN(C)CC4)cc(C(F)(F)F)c3)ccc21 (racemic) | > 10 | > 10 | 2.1 |  | 
12 | CC(C)c1cc(CN2CCN(C)CC2)cc(NC(=O)c2ccc3c(c2)CN(c2cncnc2)CC3C)c1 (racemic) | > 10 | 8.7 | 0.682 | 0.0499 | 
13 | CCc1cc(CN2CCN(C)CC2)cc(NC(=O)c2ccc3c(c2)CN(c2cncnc2)CC3C)c1 (racemic) | > 10 | > 10 |  |  | 
14 | CC1CN(c2cncnc2)Cc2cc(C(=O)Nc3cccc(CN4CCN(C)CC4)c3)ccc21 (racemic) | > 10 | > 10 | > 10 | > 10 | 
15 | CC1CN(c2cncnc2)Cc2cc(C(=O)Nc3cc(CN4CCCN(C)CC4)cc(C(F)(F)F)c3)ccc21 (racemic) | > 10 | > 10 |  |  | 
16 | CC1CN(c2cncnc2)Cc2cc(C(=O)Nc3cc(CN4CCN(C)CC4)cc(C4CC4)c3)ccc21 (racemic) | > 10 | 9.9 |  |  | 

Row | Compound | IC50 [1] [µM] | IC50 (Bcr/Abl fusion protein) [µM] | IC50 [2] [µM] | IC50 [3] [µM] | further results
17 | CN1CCN(Cc2cc(NC(=O)c3ccc4c(c3)CN(c3cncnc3)CC4(C)C)cc(C(F)(F)F)c2)CC1 | > 10 | > 10 |  |  | 
18 | CC1CN(c2cncnc2)Cc2cc(C(=O)Nc3cc(CN4CCCCC4)cc(C(F)(F)F)c3)ccc21 (racemic) | > 10 | > 10 |  |  | 
19 | C[C@H]1CN(c2cncnc2)Cc2cc(C(=O)Nc3cc(CN4CCN(C)CC4)cc(C(F)(F)F)c3)ccc21 | > 10 |  |  |  | 
20 | CCN1CCN(Cc2cc(NC(=O)c3ccc4c(c3)CN(c3cncnc3)CC4C)cc(C(F)(F)F)c2)CC1 (stereo unspecified) | > 10 | > 10 | 0.944 | 0.0711 | 
21 | CC1CN(c2cncnc2)Cc2cc(C(=O)Nc3cc(CN4CCN(C)CC4)cc(C(F)(F)F)c3)ccc21 (racemic) | > 10 |  |  |  | 
22 | CC1CN(c2cncnc2)Cc2cc(C(=O)Nc3cc(CN4CCOCC4)cc(C(F)(F)F)c3)ccc21 (stereo unspecified) | > 10 | > 10 |  |  | 
23 | CC1CN(c2cncnc2)Cc2cc(NC(=O)Nc3cc(CN4CCN(C)CC4)cc(C(F)(F)F)c3)ccc21 (racemic) | > 10 | > 10 | > 10 | > 10 | 
24 | CC1CN(c2cncnc2)Cc2cc(C(=O)Nc3cc(CCN4CCN(C)CC4)cc(C(F)(F)F)c3)ccc21 (racemic) | > 10 | > 10 | 1.5 | 0.0807 | 
25 | CC1CN(c2cncnc2)Cc2cc(C(=O)Nc3cc(CN4CCSCC4)cc(C(F)(F)F)c3)ccc21 (racemic) | > 10 | > 10 |  |  | 
26 | CC1CN(c2cncnc2)Cc2cc(C(=O)Nc3cc(CN4CCN(C)CC4)cc(C(C)(C)C)c3)ccc21 (racemic) | > 10 | 4.3 |  |  | 
27 | C[C@H]1CN(c2cncnc2)Cc2cc(C(=O)Nc3cc(CN4CCCN(C)CC4)cc(C(F)(F)F)c3)ccc21 | > 10 | 8.1 | 0.255 | 0.0066 | Activity (Mus musculus [4]): Dose-dependent effect; Activity [5]: Active; Activity (Mus musculus [6]): Active; inhibition (Peritoneal macrophage [7]): Dose-dependent effect; Activity (Mus musculus [8]): Active; Kd [9]: 0.0022 µM; inhibition [10]: 99.9%; Activity [11]: Active; inhibition (Peritoneal macrophage [12]): Dose-dependent effect; Activity (Mus musculus [13]): Dose-dependent effect
28 | CC1CN(c2cncnc2)Cc2cc(C(=O)Nc3cc(CN4CCCC4)cc(C(F)(F)F)c3)ccc21 (racemic) | > 10 | > 10 | 2.6 |  | 
29 | CC1CN(c2cncnc2)Cc2cc(C(=O)Nc3cc(CN(C)C)cc(C(F)(F)F)c3)ccc21 (racemic) | > 10 | > 10 |  |  | 
30 | CC1CN(c2cncnc2)Cc2cc(C(=O)Nc3cc(CN4CCN(C)CC4)cc(-c4ccccc4)c3)ccc21 (racemic) | > 10 | 10 |  |  | 
31 | CN1CCN(Cc2cc(NC(=O)c3ccc4c(c3)CN(c3cncnc3)CC4)cc(C(F)(F)F)c2)CC1 | > 10 |  |  |  | 
